Assay results: ChEMBL document CHEMBL1130892, “Novel cytokine release inhibitors. Part I: Triterpenes” (Bioorg Med Chem Lett, 1998)

Tests used:
[1] = Inhibitory activity against LPS-stimulated 1L-1beta release by cultured human monocytes; type: functional
Rattus norvegicus = assay: Compound was tested for reduction of streptococcal cell wall(SCW) in rats at a dose of 0.67 mg/kg; type: functional
[2] = Inhibitory activity against LPS-stimulated IL1-beta release by cultured human monocytes at a concentration 1000 nM; type: functional
Caspase-1 = target: T1, Caspase-1 (Homo sapiens, UniProt P29466); assay: Inhibitory activity against IL-1 beta converting enzyme was evaluated.
T1 sequence (P29466 whole entry): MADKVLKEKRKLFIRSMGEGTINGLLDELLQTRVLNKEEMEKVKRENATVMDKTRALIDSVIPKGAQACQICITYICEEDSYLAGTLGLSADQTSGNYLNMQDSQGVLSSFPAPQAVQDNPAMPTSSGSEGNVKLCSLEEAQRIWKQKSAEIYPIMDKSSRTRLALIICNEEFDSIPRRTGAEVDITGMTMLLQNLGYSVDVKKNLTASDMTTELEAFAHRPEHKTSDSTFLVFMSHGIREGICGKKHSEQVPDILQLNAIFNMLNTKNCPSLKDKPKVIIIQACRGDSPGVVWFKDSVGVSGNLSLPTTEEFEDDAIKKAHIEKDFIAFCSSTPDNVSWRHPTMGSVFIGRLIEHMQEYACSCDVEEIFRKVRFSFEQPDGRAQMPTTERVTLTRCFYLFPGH

SMILES	IC50 [1] [nM]	other results
COC(=O)[C@]1(C)CC[C@]2(C)CC[C@]3(C)C4=CCc5c(cc(O)c(O)c5C)[C@]4(C)CC[C@@]3(C)[C@@H]2C1 [PRISTIMEROL]	260	
COC(=O)[C@]1(C)CC[C@]2(C)CC[C@]3(C)C4=CCc5c(cc(OC(C)=O)c(OC(C)=O)c5C)[C@]4(C)CC[C@@]3(C)[C@@H]2C1 [PRISTIMEROL DIACETATE]	79	
COC(=O)[C@]1(C)CC[C@]2(C)CC[C@]3(C)C4=CC=C5C(=CC(=O)C(O)=C5C)[C@]4(C)CC[C@@]3(C)[C@@H]2C1 [PRISTIMERIN]	56	
COc1ccc2c(c1)c(CC(=O)O)c(C)n2C(=O)c1ccc(Cl)cc1 [INDOMETHACIN]		SCW reduction (Rattus norvegicus): 70%
COC(=O)[C@]1(C)CC[C@]2(C)CC[C@]3(C)C4=CCc5c(cc(OC)c(OC)c5C)[C@]4(C)CC[C@@]3(C)[C@@H]2C1		inhibition at 1 µM [2]: 8%
CC1=C(O)C(=O)C=C2C1=CC=C1[C@@]2(C)CC[C@@]2(C)[C@@H]3C[C@@H](C)C(=O)C[C@]3(C)CC[C@]12C [TINGENONE]	58	
O=C1C=CC(=O)C=C1 [BENZOQUINONE]		IC50 (Caspase-1): 3 µM
CC1=C(O)C(=O)C=C2C1=CC=C1[C@@]2(C)CC[C@@]2(C)[C@@H]3C[C@](C)(C(=O)O)CC[C@]3(C)CC[C@]12C [CELASTROL]	40	
